Measurements: ChEMBL document CHEMBL3352500, “Identification and characterization of an anti-pseudomonal dichlorocarbazol derivative displaying anti-biofilm activity” (Bioorg Med Chem Lett, 2014)
In brackets after ≈: the same amount, converted by molar mass. Activity calls are given as the source filed them. The calls are words filed in the database; no cut-off is given here.

Columns and labels:
Pseudomonas aeruginosa [1] = assay: Antibacterial activity against Pseudomonas aeruginosa after 24 hrs by two-fold broth microdilution method; type: functional
Escherichia coli [2] = assay: Antibacterial activity against Escherichia coli TG1; type: functional
[3] = Cytotoxicity against human endothelial cells at 4.63 ug/ml after 2 hrs; type: cell-based; details: endothelial cell
Pseudomonas aeruginosa [4] = assay: Antibiofilm activity against Pseudomonas aeruginosa on smooth titanium disc assessed as reduction in total area fraction at 1 to 12 ug/ml after 19 hrs by confocal laser scanning microscopy; type: functional
[5] = Cytotoxicity against human osteoblasts assessed as cell viability at 4.63 ug/ml after 2 hrs; type: cell-based, Osteoblast; details: read-out: Activity
Pseudomonas aeruginosa [6] = assay: Antibacterial activity against ticarcillin/cefepime-resistant Pseudomonas aeruginosa clinical isolate PA1250; type: functional
[7] = Cytotoxicity against human endothelial cells assessed as effect on tube formation at 4.63 ug/ml after 4 hrs; type: cell-based; details: endothelial cell
Pseudomonas aeruginosa [8] = assay: Antibiofilm activity against Pseudomonas aeruginosa PA14 after 24 hrs; type: functional
Pseudomonas aeruginosa [9] = assay: Antibacterial activity against ticarcillin-resistant Pseudomonas aeruginosa clinical isolate PA424; type: functional
Porphyromonas gingivalis [10] = assay: Antibiofilm activity against Porphyromonas gingivalis ATCC 33277 after 72 hrs; type: functional
Staphylococcus aureus [11] = assay: Antibacterial activity against Staphylococcus aureus SH1000; type: functional
[12] = Cytotoxicity against human mesenchymal stem cells assessed as cell viability at 4.63 ug/ml after 2 hrs; type: cell-based; details: read-out: Activity
Porphyromonas gingivalis [13] = assay: Antibacterial activity against Porphyromonas gingivalis ATCC 33277; type: functional
Staphylococcus aureus [14] = assay: Antibiofilm activity against Staphylococcus aureus SH1000 after 24 hrs; type: functional
Pseudomonas aeruginosa [15] = assay: Antibacterial activity against ticarcillin-resistant Pseudomonas aeruginosa clinical isolate PA53; type: functional
[16] = test system: Staphylococcus epidermidis; assay: Antibacterial activity against Staphylococcus epidermidis RP62A; type: functional
Pseudomonas aeruginosa [17] = assay: Bactericidal activity against Pseudomonas aeruginosa; type: functional
Pseudomonas aeruginosa [18] = assay: Antibacterial activity against Pseudomonas aeruginosa clinical isolate PA1256; type: functional
Pseudomonas aeruginosa [19] = assay: Antibacterial activity against Pseudomonas aeruginosa PA14; type: functional
Escherichia coli [20] = assay: Antibiofilm activity against Escherichia coli TG1 after 24 hrs; type: functional
Pseudomonas aeruginosa [21] = assay: Antibiofilm activity against Pseudomonas aeruginosa on smooth titanium disc at 3.7 ug/ml after 19 hrs by confocal laser scanning microscopy; type: functional, organism-based
Pseudomonas aeruginosa [22] = assay: Antibiofilm activity against Pseudomonas aeruginosa on smooth titanium disc assessed as dead cells in biofilm at 12 ug/ml after 19 hrs by confocal laser scanning microscopy relative to control; type: functional, organism-based
Pseudomonas aeruginosa [23] = assay: Antibiofilm activity against Pseudomonas aeruginosa assessed as decrease of culturable cells in biofilm at >= 4.63 ug/ml after 24 hrs by plate counting method; type: functional, organism-based
Pseudomonas aeruginosa [24] = assay: Antibacterial activity against wild-type Pseudomonas aeruginosa YM; type: functional
Pseudomonas aeruginosa [25] = assay: Antibacterial activity against Pseudomonas aeruginosa YM64 expressing mexAB-oprM::FRT/mexXY::FRT/mexCD-oprJ::FRT/mexEF-oprN::FRT deletion mutant; type: functional
Pseudomonas aeruginosa [26] = assay: Antibacterial activity against ticarcillin-resistant Pseudomonas aeruginosa clinical isolate PA1271; type: functional
Pseudomonas aeruginosa [27] = assay: Antibacterial activity against ticarcillin-resistant Pseudomonas aeruginosa clinical isolate PA08; type: functional
Pseudomonas aeruginosa [28] = assay: Antibacterial activity against ticarcillin-resistant Pseudomonas aeruginosa clinical isolate PA129; type: functional
Pseudomonas aeruginosa [29] = assay: Antibacterial activity against ticarcillin/piperacillin/ceftazidime/cefepime-resistant Pseudomonas aeruginosa clinical isolate PA1255; type: functional
Pseudomonas aeruginosa [30] = assay: Antibacterial activity against Pseudomonas aeruginosa clinical isolate PA1270; type: functional
[31] = test system: Staphylococcus epidermidis; assay: Antibiofilm activity against Staphylococcus epidermidis RP62A after 72 hrs; type: functional
Pseudomonas aeruginosa [32] = assay: Antibacterial activity against ticarcillin/piperacillin-resistant Pseudomonas aeruginosa clinical isolate PA346; type: functional

## CN(C)CC(O)Cn1c2ccc(Br)cc2c2cc(Br)ccc21 (stereo not drawn)
Pseudomonas aeruginosa [1]
  MIC: 18.5 µg/mL (≈ 43.4 µM)

## CCN(CC)CC(O)Cn1c2ccc(Cl)cc2c2cc(Cl)ccc21 (stereo not drawn)
Pseudomonas aeruginosa [1]
  MIC: 37 µg/mL (≈ 101 µM)

## CC1COc2c(N3CCN(C)CC3)c(F)cc3c(=O)c(C(=O)O)cn1c23 (stereo not drawn) [OFLOXACIN]
Escherichia coli [2]
  MIC: 0.1 µg/mL (≈ 0.277 µM)

## OCCn1c2ccccc2c2cc(Cl)ccc21
Pseudomonas aeruginosa [1]
  MIC: 18.5 µg/mL (≈ 75.3 µM)

## CCC(C)NCC(O)Cn1c2ccc(Cl)cc2c2cc(Cl)ccc21 (stereo not drawn)
[3]
  Activity: Toxic
Pseudomonas aeruginosa [4]
  inhibition (INH): 50%
[5]
  viability at 2 h, 4.63 ug/ml: > 80%
Pseudomonas aeruginosa [6]
  MIC: 18.5 µg/mL (≈ 50.6 µM)
[7]
  Activity: Non-toxic
Pseudomonas aeruginosa [8]
  MBIC: 18.5 µg/mL
Pseudomonas aeruginosa [9]
  MIC: 18.5 µg/mL (≈ 50.6 µM)
Porphyromonas gingivalis [10]
  MBIC: 5.11 µg/mL
Staphylococcus aureus [11]
  MIC: 9.25 µg/mL (≈ 25.3 µM)
[12]
  viability at 2 h, 4.63 ug/ml: > 80%
Porphyromonas gingivalis [13]
  MIC: 4.63 µg/mL (≈ 12.7 µM)
Staphylococcus aureus [14]
  MBIC: 9.25 µg/mL
Pseudomonas aeruginosa [15]
  MIC: 18.5 µg/mL (≈ 50.6 µM)
[16]
  MIC: 9.25 µg/mL (≈ 25.3 µM)
Pseudomonas aeruginosa [1]
  MIC: 18.5 µg/mL (≈ 50.6 µM)
Pseudomonas aeruginosa [17]
  MBC: 18.5 µg/mL (≈ 50.6 µM)
Pseudomonas aeruginosa [18]
  MIC: 9.25 µg/mL (≈ 25.3 µM)
Pseudomonas aeruginosa [19]
  MIC: 18.5 µg/mL (≈ 50.6 µM)
Escherichia coli [20]
  MBIC90: 2.22 µg/mL
Pseudomonas aeruginosa [21]
  Activity: Active
Pseudomonas aeruginosa [22]
  Activity: Active
Pseudomonas aeruginosa [23]
  Activity: Active
Pseudomonas aeruginosa [24]
  MIC: 18.5 µg/mL (≈ 50.6 µM)
Pseudomonas aeruginosa [25]
  MIC: 4.63 µg/mL (≈ 12.7 µM)
Pseudomonas aeruginosa [26]
  MIC: 18.5 µg/mL (≈ 50.6 µM)
Pseudomonas aeruginosa [27]
  MIC: 18.5 µg/mL (≈ 50.6 µM)
Pseudomonas aeruginosa [28]
  MIC: 18.5 µg/mL (≈ 50.6 µM)
Pseudomonas aeruginosa [29]
  MIC: 18.5 µg/mL (≈ 50.6 µM)
Pseudomonas aeruginosa [30]
  MIC: 18.5 µg/mL (≈ 50.6 µM)
[31]
  MBIC: 9.25 µg/mL
Pseudomonas aeruginosa [32]
  MIC: 18.5 µg/mL (≈ 50.6 µM)
Escherichia coli [2]
  MIC: 4.63 µg/mL (≈ 12.7 µM)

## CN(CCO)CC(O)Cn1c2ccc(Cl)cc2c2cc(Cl)ccc21 (stereo not drawn)
Pseudomonas aeruginosa [1]
  MIC: 18.5 µg/mL (≈ 50.4 µM)

## N=C(NCCCCCCNC(=N)NC(=N)Nc1ccc(Cl)cc1)NC(=N)Nc1ccc(Cl)cc1 [CHLORHEXIDINE]
Porphyromonas gingivalis [13]
  MIC: 4 µg/mL (≈ 7.91 µM)

## GENTAMICIN
Staphylococcus aureus [11]
  MIC: 12.5 µg/mL

## OCCN(CCO)CC(O)Cn1c2ccc(Cl)cc2c2cc(Cl)ccc21 (stereo not drawn)
Pseudomonas aeruginosa [1]
  MIC: > 74 µg/mL

## O=C(O)c1cn(C2CC2)c2cc(N3CCNCC3)c(F)cc2c1=O [CIPROFLOXACIN]
[16]
  MIC: 1.56 µg/mL (≈ 4.71 µM)

## OC(CN1CCCCC1)Cn1c2ccc(Cl)cc2c2cc(Cl)ccc21 (stereo not drawn)
Pseudomonas aeruginosa [1]
  MIC: 74 µg/mL (≈ 196 µM)

## OC(CNCC1CCCO1)Cn1c2ccc(Cl)cc2c2cc(Cl)ccc21 (stereo not drawn)
Pseudomonas aeruginosa [1]
  MIC: 18.5 µg/mL (≈ 47 µM)
